PubChem BioAssay (NCI)
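Five concentrations, 48 hours, 96-well plates. Here, GI50 denotes the concentration required for 50% inhibition of growth. At the TGI there is no net growth.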 Where a SMILES comes first, the peptide text is derived from it. [ ]: non-standard residue; d: D form. The star is where a group is joined. Cbz = O=C(OCc1ccccc1)*; Aib = CC(C)(N)C(=O)O

Columns and labels:
Test in all cases: NCI tumour cell line growth inhibition, 48 h
HCC-2998 colon = test system: HCC-2998 colon
HCT-116 colon = test system: HCT-116 colon
HOP-62 NSCLC = test system: HOP-62 NSCLC
HS 578T breast = test system: HS 578T breast
M14 melanoma = test system: M14 melanoma
MDA-MB-231 breast = test system: MDA-MB-231 breast
PC-3 prostate = test system: PC-3 prostate
RXF 393 renal = test system: RXF 393 renal
HCT-15 colon = test system: HCT-15 colon
NCI-H522 lung = test system: NCI-H522 lung

SMILES	TGI (HCC-2998 colon)	TGI (HCT-116 colon)	TGI (HOP-62 NSCLC)	TGI (HS 578T breast)	TGI (M14 melanoma)	TGI (MDA-MB-231 breast)	TGI (PC-3 prostate)	TGI (RXF 393 renal)	TGI (HCT-15 colon)	TGI (NCI-H522 lung)	GI50 (PC-3 prostate)
COc1cc(-c2nc(SC)nc3c2CCc2ccccc2-3)cc(OC)c1OC	> 100 µM	> 100 µM	> 100 µM	> 100 µM	> 100 µM	> 100 µM	> 100 µM	> 100 µM	–	–	–
O=c1onc(Nc2ccccc2)n1-c1ccccc1	> 100 µM	> 100 µM	> 100 µM	> 100 µM	> 100 µM	> 100 µM	> 100 µM	> 100 µM	> 100 µM	–	–
O=NNc1c[nH]c(=O)[nH]c1=O	> 100 µM	> 100 µM	> 100 µM	–	> 100 µM	> 100 µM	> 100 µM	> 100 µM	> 100 µM	> 100 µM	–
CCN(CC)C(=O)c1cc([N+](=O)[O-])c(=O)n2c1[nH]c1ccccc12	> 100 µM	> 100 µM	> 100 µM	> 100 µM	> 100 µM	> 100 µM	> 100 µM	> 100 µM	–	> 100 µM	–
CCOP(=O)(Cc1nc(C#N)c(N)o1)OCC	> 100 µM	> 100 µM	> 100 µM	> 100 µM	–	> 100 µM	> 100 µM	> 100 µM	> 100 µM	> 100 µM	–
OC(CCl)CN1CC[N+]2(CC1)CC[N+]1(CCN(CC(O)CCl)CC1)CC2 (stereo not given)	> 50 µM	> 50 µM	–	–	> 50 µM	–	–	> 50 µM	> 50 µM	> 50 µM	–
c1ccc(OCc2nnc(CCCCCCCCc3nnc(COc4ccccc4)o3)o2)cc1	> 100 µM	> 100 µM	> 100 µM	–	> 100 µM	> 100 µM	> 100 µM	30.8 µM	> 100 µM	> 100 µM	–
O=c1[nH]c2ccc(C(F)(F)F)cc2nc1C(F)(F)F	> 100 µM	60.7 µM	55.5 µM	–	> 100 µM	96.5 µM	62.7 µM	36.3 µM	> 100 µM	47.6 µM	–
CC1=C(C(=O)NCc2ccccc2)C(c2ccco2)C(C(=O)NCc2ccccc2)=C(C)N1	> 100 µM	> 100 µM	> 100 µM	–	> 100 µM	–	–	> 100 µM	> 100 µM	> 100 µM	–
Cc1cc(O)c(C(C)C)cc1C(=S)Nc1ccc(Cl)cc1	33 µM	26 µM	32.9 µM	28.9 µM	–	–	23 µM	–	25.1 µM	17.8 µM	–
O=[N+]([O-])c1ccc(Nc2cccc3c2[nH]c2c(-c4ccccc4)nccc23)c([N+](=O)[O-])c1	> 100 µM	> 100 µM	> 100 µM	–	–	–	–	> 100 µM	> 100 µM	> 100 µM	–
COc1ccc(C2NC(N)=C(C#N)C3=C2C(C)CCC3)cc1OC (stereo not given)	–	> 100 µM	75.7 µM	> 100 µM	> 100 µM	> 100 µM	> 100 µM	> 100 µM	> 100 µM	–	–
O=C(CN1CCN(c2ccccn2)CC1)N1CCCn2c1nc1ccccc1c2=O	> 100 µM	> 100 µM	> 100 µM	> 100 µM	> 100 µM	> 100 µM	> 100 µM	–	> 100 µM	> 100 µM	–
Cc1ccc2c(=O)cc(-c3cccc(F)c3)[nH]c2n1	0.401 µM	–	> 100 µM	0.0591 µM	> 100 µM	1.11 µM	–	> 100 µM	–	0.0504 µM	–
CC(C)(NC(=O)C(C)(C)NC(=O)OCc1ccccc1)C(=O)O (Cbz-[Aib]-[Aib]-OH)	> 100 µM	> 100 µM	> 100 µM	> 100 µM	> 100 µM	> 100 µM	> 100 µM	–	> 100 µM	> 100 µM	–
Cc1cc(OCC(O)CO)ccc1Cl (stereo not given)	> 100 µM	> 100 µM	> 100 µM	–	> 100 µM	–	–	> 100 µM	> 100 µM	> 100 µM	–
Cc1ccc(S(=O)(=O)NC(=O)NC(CC(=O)O)C(=O)O)cc1 (stereo not given)	–	> 100 µM	> 100 µM	> 100 µM	> 100 µM	> 100 µM	> 100 µM	> 100 µM	> 100 µM	> 100 µM	–
CC(=O)c1c(O)cc(O)c(-c2c(C)cc(O)c3c2C(=O)c2cccc(O)c2C3=O)c1O	–	30 µM	40.5 µM	34.6 µM	51.4 µM	41.1 µM	30.6 µM	–	28.6 µM	24.7 µM	–
COc1ccc(/C=C2\OC(=O)C(Cl)=C2c2ccc(OC)c(Cl)c2)cc1	> 100 µM	> 100 µM	35.7 µM	73.7 µM	76.9 µM	–	> 100 µM	29.5 µM	> 100 µM	79 µM	–
CCN(CCC#N)C(=O)Nc1ccccc1	> 100 µM	> 100 µM	> 100 µM	–	> 100 µM	> 100 µM	> 100 µM	> 100 µM	> 100 µM	> 100 µM	–
CCOC(=O)CCC(NC(=O)c1ccc(Nc2nc3ccccc3nc2C(=O)OCC)s1)C(=O)OCC (stereo not given)	> 100 µM	> 100 µM	–	> 100 µM	> 100 µM	> 100 µM	> 100 µM	> 100 µM	> 100 µM	> 100 µM	–
CC(C)(C)CC(C)(C)NCC(O)COc1ccc(C(C)(C)c2ccc(OCC(O)CNC(C)(C)CC(C)(C)C)cc2)cc1 (stereo not given)	1.21 µM	5.38 µM	3.19 µM	–	1.49 µM	–	3.38 µM	2.75 µM	2.69 µM	3.02 µM	1.88 µM
COc1ccc(C2=NN(c3nsc4ccccc34)C(=O)CC2)cc1	> 100 µM	> 100 µM	> 100 µM	–	> 100 µM	–	–	> 100 µM	> 100 µM	–	–
COc1cccc(N(CN2C(=O)CCC2OC)C(C)=O)c1 (stereo not given)	> 100 µM	> 100 µM	> 100 µM	> 100 µM	> 100 µM	> 100 µM	> 100 µM	> 100 µM	> 100 µM	–	–
O=C(O)c1cccc(S(=O)(=O)NN2C(=O)CSC2c2c(O)ccc3ccccc23)c1 (stereo not given)	> 100 µM	38.5 µM	> 100 µM	–	> 100 µM	> 100 µM	> 100 µM	89.1 µM	> 100 µM	77.6 µM	–
